In US10731134B2, “Production method for artificial cancer stem cell and induced differentiation method therefor” (Public University Corporation Yokohama City University, priority 2011, dated 2020):
Entries after “also recorded” stand apart in the source; their conditions may differ.

Tests used:
[1] = tested on: (CD44low/CD24high) cancer cells; conditions: mixed population of cancer stem cells and cancer cells; Gupta et al. 2009; cited from earlier work
[2] = tested on: (CD44high/CD24low) cancer stem cells; conditions: mixed population of cancer stem cells and cancer cells; Gupta et al. 2009; cited from earlier work
[3] = tested on: CSC-10A-D9 induced by differentiation from CSC-10A (induced cancer stem cells); assay: Induced differentiation of CSC-10A by addition of salinomycin (phase-contrast morphology, alkaline phosphatase staining, Western blot); type: cell-based, human
Protocol: Also, these cells were stained with an undifferentiation marker alkaline phosphatase (ALP). […] Next, these cells were lysed and subjected to Western blot.
Induced Differentiation Method for CSC-10A (Addition of Salinomycin)
CSC-10A was seeded over 10-cm dishes. After 24 hours, salinomycin was added to give a final concentration of […] and the culture was continued at 37° C. Four days after the addition of salinomycin, the cells were stained with alkaline phosphatase. The cells were recovered four days after the addition of salinomycin and subjected to Western blot which confirmed the expression of vimentin, β-catenin, and tubulin (control).

[4] = Western blot, 10 μM salinomycin, 4 days after addition

Compound	Effect on (CD44low/CD24high) cancer cells [1]	Effect on (CD44high/CD24low) cancer stem cells [2]	Staining with undifferentiation marker alkaline phosphatase (ALP-positive cells) ([3]; 10 μM salinomycin vs DMSO, 4 days after addition)	Size of each individual cell ([3]; 10 μM salinomycin vs DMSO, 4 days later)	Cell differentiation / morphology under a phase-contrast microscope ([3]; 10 μM salinomycin vs DMSO, observed 4 days later)	Expression of differentiation (epithelial) marker beta-catenin [3, 4]	Expression of stem cell (mesenchymal) marker vimentin [3, 4]
CC(=O)O[C@H]1C(=O)[C@@]2(C)[C@H]([C@H](OC(=O)c3ccccc3)[C@]3(O)C[C@H](OC(=O)[C@H](O)[C@@H](NC(=O)c4ccccc4)c4ccccc4)C(C)=C1C3(C)C)[C@]1(OC(C)=O)CO[C@@H]1C[C@@H]2O [Taxol]	only inhibits the growth of cancer cells	left intact					
CC[C@@H](C(=O)[C@@H](C)[C@@H](O)[C@H](C)[C@@H]1O[C@@H]([C@@H](CC)C(=O)O)CC[C@@H]1C)[C@H]1O[C@]2(C=C[C@@H](O)[C@]3(CC[C@@](C)([C@H]4CC[C@](O)(CC)[C@H](C)O4)O3)O2)[C@H](C)C[C@@H]1C [salinomycin]	leaving cancer cells intact	kills only cancer stem cells	significant decrease in ALP-positive cells; also recorded: decreased	increased	differentiated into epithelial-like cells	increase	decrease
